We go through 9 molecules from patent US9260382B2, “Methods of reducing virulence in bacteria” (priority 2010, dated 2016).

The structures appear in SMILES notation. “Also recorded” adds a separate entry of the source.

Assay [1] has as its system hrpA promoter (T3SS). Nature of the assay: GFP reporter plasmid phrpA, flow cytometry (FACS) of hrpA promoter activity. Type of assay: cell-based, Dickeya dadantii 3937. The settings on record: for mean fluorescence intensity of GFP, hrpA expression: D. dadantii 3937 (phrpA), MM + 100 μM compound; for inhibitory activity on T3SS gene (hrpA) expression, in words: D. dadantii 3937, reporter plasmid phrpA, 100 μM; for minimal effective concentration: Dickeya dadantii, read-out: minimal inhibitory concentration on hrpA expression (concentration showing inhibitory effect). As for the experimental part:
(§1) FACS analysis of promoter activity of dspE, hrpA, hrpL, hrpN, and hrpS was carried out as described (Peng et al., 2006). Briefly, the wild-type Ech3937 and the mutant strains carrying the promoter reporter plasmid were grown on LB broth at 28° C. overnight and transferred to appropriate media. For FACS analysis, samples were collected by centrifugation, washed with 1× phosphate buffer saline (PBS) at 13,000 rpm for 1 min, and re-suspended in 1×PBS to ca 10^6 CFU/ml prior to being run in a FACS Calibur flow cytometer (BD Biosciences, CA). Three replicates were performed for each treatment.
To identify potential compounds that repress activation of T3SS, analogs and isomers of TCA and intermediates of salicylic acid and phenypropanoid biosynthesis pathways in plants were further screened for their effect on Ech3937 hrpA expression by flow cytometry (Table 9). A green fluorescent protein (GFP) reporter plasmid phrpA (pProbe-AT derivative with PCR fragment containing hrpA promoter region) was constructed, resulting in a transcriptional fusion of hrpA promoter with GFP gene. Bacterial cells containing phrpA plasmid were grown in MM supplemented with 0.1 mM of each compound. GFP intensity, which is a measurement of hrpA promoter activity, was measured by flow cytometry.
hrpA encodes the T3SS pilus required for protein translocation into plant cells. To test for an inhibitory effect on T3SS hrpA expression, the reporter plasmid phrpA was used to measure the effects of these compounds on hrpA expression. The reporter plasmid phrpA encodes a transcriptional fusion of the hrpA promoter controlling expression of green fluorescent protein (gfp). 50 μL of bacterial suspension of D. dadantii 3937 carrying the hrpA reporter (optical density at 600 nm OD600=1.0) was used as the initial inoculum and added to 5 mL of MM or MM supplemented with 100 μM of one of the compounds. The expression level of hrpA of these bacterial cells was measured by measuring GFP intensity of gated populations of the bacterial cells by flow cytometry and analyzed with Cell Quest software (BD Biosciences, San Jose, Calif.). The fluorescence intensities were an average GFP fluorescence intensity of total bacterial cells. Compounds were assayed two different times (12 and 24 h of bacterial growth) with T3SS minimal media (MM) as the control treatment for each set of experiment. Values presented in Table 14 are mean fluorescence intensity of GFP, representative of two experiments, presented as the average of three replicates with standard deviation (SD).
Background: Flow cytometry measures light scatter and fluorescence of single cells or particles in a stream.

The test system of assay [2] is hrpA promoter (T3SS). Nature of the assay: hrpA promoter-probe phrpA in Erwinia amylovora 273, flow cytometry. Type of assay: cell-based. The settings on record: Ea273 (phrpA), HIM + 100 μM compound. In short, it runs like this: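 Erwinia amylovora 273 carrying an hrpA promoter–GFP fusion (pPROBE-NT) was grown in hrp-inducing medium with 100 μM compound or DMSO. Promoter activity read as GFP intensity by flow cytometry at 6 h and 9 h.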

In another assay the test system is hrpS promoter. As to the kind of experiment: GFP reporter plasmid phrpS, flow cytometry of hrpS promoter activity. It is filed as cell-based, Dickeya dadantii 3937. The settings on record: reporter plasmid phrpS. As for the experimental part: as §1
To test for an inhibitory effect on T3SS hrpS expression, the reporter plasmid phrpS was used to measure the effects of these compounds on hrpA expression.

A further assay concerns P. aeruginosa. Nature of the assay: P. aeruginosa bacterial growth with compound. The settings on record: for effect on bacterial growth, in words: P. aeruginosa, 250 μM; for dose-dependent effect on P. aeruginosa growth, in words: various concentrations (up to 250 μM for 101, up to 500 μM for 027), FIG. 39. It is filed as cell-based, P. aeruginosa PA01. As for the experimental part:
(§2) To identify T3SS inhibitors of PA01, a promoter-probe vector pPROBE-AT containing the promoterless green fluorescent protein (gfp) gene was used to construct an exoS promoter-gfp plasmid reporter, pATexoS. PA01 containing pATexoS was cultured in T3SS-inducing medium containing dimethyl sulfoxide (DMSO; solvent of chemical compounds), or supplemented with 250 μM of each compound, and promoter activity was assessed at 6 h by measuring GFP intensity using flow cytometry. 101 compounds (58 synthesized and 43 commercially available) were screened. Compounds 027, 032, 101, and 149 repressed exoS expression at the final concentration of 250 μM by at least one standard deviation below the sample average (Z score≦−1) (FIG. 37 A-E). Z score (or standard score) indicates how many standard deviations an observation or datum is above or below the mean [z=(x−μ)/σ, where x is a raw score to be standardized, μ is the mean of the population, and σ is the standard deviation of the population].
(§3) To determine the effective concentration of compounds, the dose-dependent effect of potential inhibitors on exoS expression and bacterial growth were tested. P. aeruginosa cells carrying pATexoS were pre-cultured in LB supplemented with 200 mM NaCl and transferred to fresh LB with 200 mM NaCl, 10 mM NTA, and various concentrations of compounds (20, 50, 100, and 250 μM) or DMSO for 6 h. […] At 50 μM dosage, both 027 and 101 inhibited exoS expression at similar levels, and this inhibitory effect increased as compound concentration increased (FIG. 38A and Table 17). […] These inhibitions/inductions of exoS expression are caused by the shifting bacterial population between low-state expression cells and high-state expression cells (FIG. 40).

A further assay concerns exoS promoter (T3SS). As to the kind of experiment: exoS promoter-gfp reporter pATexoS, flow cytometry. It is filed as cell-based, P. aeruginosa PA01. Conditions: for Actual readings of flow cytometry (exoS expression): 6 h, LB with 200 mM NaCl, 10 mM NTA; for Fraction of untreated control (exoS expression): structure-activity table, concentration not given. As for the experimental part:
as §2, §3

[3] abbreviates: Trial 1, MM supplemented with compound at 100 μM.
Where [4] appears, read: Trial 2, MM supplemented with compound at 100 μM.

For the molecule `CCOC(=O)[C@@H]1C[C@H]1c1ccc(O)cc1` (relative stereo) [Compound 106, Ethyl trans-2-(4-hydroxyphenyl)-1-cyclopropanecarboxylate], the figures for the “mean fluorescence intensity of GFP, hrpA expression” value in the assay with hrpA promoter (T3SS) [1] (12 h) and with hrpA promoter (T3SS) [1] (24 h) were 10.5 ± 0.8 and 49.4 ± 4.1, respectively. The “inhibitory activity on T3SS gene (hrpA) expression, in words” value (shortened to “inhibitory activity on T3SS gene”) with hrpA promoter (T3SS) [1] was “showed inhibitory effect; also recorded: strong inhibitory potency”. Further, in the assay with hrpA promoter (T3SS) [1], the minimal effective concentration worked out at 100 µM. For the same molecule, the “Mean Fluorescence Intensity of GFP (hrpA, phrpA)” value with hrpA promoter (T3SS) [1] (setting [3]) is recorded as 9.4 ± 0.1. The “Avg MFI ± SD, hrpA expression” value in the assay with hrpA promoter (T3SS) [2] (6 h) was 1289.3 ± 46.5; in the assay with hrpA promoter (T3SS) [2] (9 h), 1110.9 ± 67.5. The “inhibitory effect on T3SS hrpS expression, in words” value (“inhibitory effect” for short) in the assay with hrpS promoter is reported as “inhibited hrpS”.
For the molecule `Nc1ccc(/C=C/C(=O)O)cc1` [Compound 027, trans-4-Aminocinnamic acid], the “effect on bacterial growth, in words” value with P. aeruginosa is “minor alterations in bacterial growth”. Besides, the “dose-dependent effect on P. aeruginosa growth, in words” value with P. aeruginosa is listed as “only minor effects on bacterial growth”. Further, the “Actual readings of flow cytometry (exoS expression)” value (shortened to “Actual readings of flow cytometry”) with exoS promoter (T3SS) (20 uM) stood at 102.07 ± 0.54; in the assay with exoS promoter (T3SS) (50 uM) it was 97.23 ± 0.72; in the assay with exoS promoter (T3SS) (100 uM), 78.66 ± 2.69; in the assay with exoS promoter (T3SS) (250 uM), 72.16 ± 1.13. The “Fraction of untreated control (exoS expression)” value in the assay with exoS promoter (T3SS) came out at 0.66 ± 0.04. The “Avg MFI ± SD, hrpA expression” value in the assay on hrpA promoter (T3SS) [2] (6 h) is reported as 255.6 ± 7.4; with hrpA promoter (T3SS) [2] (9 h), 132.1 ± 8.5.
On to `OC/C=C/c1ccccc1` [Compound 032, Cinnamyl alcohol], for which the “effect on bacterial growth, in words” value with P. aeruginosa is on record as “minor alterations in bacterial growth”. Besides, the “Avg MFI ± SD, hrpA expression” value came to 681.6 ± 217.9 with hrpA promoter (T3SS) [2] (6 h) and 784.0 ± 53.3 with hrpA promoter (T3SS) [2] (9 h).
For `COC(=O)/C=C/c1ccc(O)cc1` [Compound 101, Methyl para-coumate], the “mean fluorescence intensity of GFP, hrpA expression” value turned out to be 17.5 ± 0.7 in the assay with hrpA promoter (T3SS) [1] (12 h) and 19.9 ± 0.5 in the assay on hrpA promoter (T3SS) [1] (24 h). Further, the minimal effective concentration in the assay with hrpA promoter (T3SS) [1] amounted to 100 µM. The “Actual readings of flow cytometry” value in the assay on exoS promoter (T3SS) (20 uM) worked out at 122.82 ± 2.89; in the assay with exoS promoter (T3SS) (50 uM), 106.83 ± 3.09; in the assay with exoS promoter (T3SS) (100 uM) it was 100.10 ± 1.33; in the assay on exoS promoter (T3SS) (250 uM) it was 81.88 ± 2.41. Moreover, the “Fraction of untreated control (exoS expression)” value in the assay with exoS promoter (T3SS) is 0.65 ± 0.03. For the same molecule, the “Avg MFI ± SD, hrpA expression” value in the assay with hrpA promoter (T3SS) [2] (6 h) is 1443.4 ± 49.4; with hrpA promoter (T3SS) [2] (9 h), 1227.8 ± 41.6.
For the molecule `O=C(O)/C=C/c1ccc(Br)cc1` [Compound 111, trans-4-Bromocinnamic acid], the “mean fluorescence intensity of GFP, hrpA expression” value with hrpA promoter (T3SS) [1] (12 h) came to 23.9 ± 5.2; in the assay on hrpA promoter (T3SS) [1] (24 h), 54.7 ± 7.2. Also, the “inhibitory activity on T3SS gene” value in the assay on hrpA promoter (T3SS) [1] is on record as “showed inhibitory effect; also recorded: moderate potency”. In addition, the “Mean Fluorescence Intensity of GFP (hrpA, phrpA)” value with hrpA promoter (T3SS) [1] (setting [3]) was found to be 16.5 ± 0.8. Besides, the “Avg MFI ± SD, hrpA expression” value in the assay on hrpA promoter (T3SS) [2] (6 h) was found to be 102.8 ± 23.5; with hrpA promoter (T3SS) [2] (9 h), 61.8 ± 4.2. In addition, the “inhibitory effect” value with hrpS promoter is recorded as “inhibited hrpS”.
On to `COc1ccc(/C=C/CO)cc1` [Compound 126, trans-4-Methoxycinnamyl alcohol], for which the entries for the “mean fluorescence intensity of GFP, hrpA expression” value in the assay on hrpA promoter (T3SS) [1] (12 h) and in the assay on hrpA promoter (T3SS) [1] (24 h) were 7.8 ± 0.2 and 13.4 ± 0.3, respectively. Besides, in the assay with hrpA promoter (T3SS) [1], the “inhibitory activity on T3SS gene” value was “showed inhibitory effect; also recorded: potent inhibitor”. For the same molecule, the minimal effective concentration in the assay with hrpA promoter (T3SS) [1] was 100 µM. For the same molecule, the “Mean Fluorescence Intensity of GFP (hrpA, phrpA)” value in the assay with hrpA promoter (T3SS) [1] (setting [4]) stood at 9.5 ± 0.7. Further, the “Avg MFI ± SD, hrpA expression” value is recorded as 386.9 ± 9.4 in the assay with hrpA promoter (T3SS) [2] (6 h) and 401.4 ± 10.8 in the assay with hrpA promoter (T3SS) [2] (9 h). Besides, the “inhibitory effect” value in the assay on hrpS promoter is “inhibited hrpS”.
In the case of `O=C(/C=C/c1c[nH]c2ccccc12)NO` [Compound 127, trans-3-Indoleacrylohydroxamic acid], the “mean fluorescence intensity of GFP, hrpA expression” value worked out at 21.0 ± 3.0 in the assay with hrpA promoter (T3SS) [1] (12 h) and 35.1 ± 3.0 in the assay on hrpA promoter (T3SS) [1] (24 h). Also, the “inhibitory activity on T3SS gene” value in the assay on hrpA promoter (T3SS) [1] is on record as “showed inhibitory effect; also recorded: moderate potency”. Besides, in the assay on hrpA promoter (T3SS) [1], the minimal effective concentration turned out to be 100 µM. Besides, the “Mean Fluorescence Intensity of GFP (hrpA, phrpA)” value in the assay with hrpA promoter (T3SS) [1] (setting [4]) was determined as 26.2 ± 2.6. Also, the “Avg MFI ± SD, hrpA expression” value amounted to 91.4 ± 4.9 with hrpA promoter (T3SS) [2] (6 h) and 102.7 ± 0.5 with hrpA promoter (T3SS) [2] (9 h). In addition, the “inhibitory effect” value in the assay on hrpS promoter is given as “inhibited hrpS”.
On to `O=C(NO)c1ccccc1` [Compound 134, Benzhydroxamic acid], for which, in the assay with P. aeruginosa, the “effect on bacterial growth, in words” value was “some inhibition on bacterial growth”. In addition, the “dose-dependent effect on P. aeruginosa growth, in words” value in the assay with P. aeruginosa is “inverse relationship was observed between the compound concentration and bacterial growth”. The “Actual readings of flow cytometry” value in the assay on exoS promoter (T3SS) (20 uM) was 157.22 ± 7.94; in the assay on exoS promoter (T3SS) (50 uM), 199.21 ± 3.06; in the assay with exoS promoter (T3SS) (100 uM) it was 289.53 ± 3.74; with exoS promoter (T3SS) (250 uM) it was 411.72 ± 2.70. In addition, the “Avg MFI ± SD, hrpA expression” value in the assay with hrpA promoter (T3SS) [2] (6 h) was 679.0 ± 12.7; with hrpA promoter (T3SS) [2] (9 h) it was 921.6 ± 10.3.
`O=C(/C=C/c1cccc(Cl)c1)NO` [Compound 149, trans-3-Chlorocinnamohydroxamic acid]: in the assay on P. aeruginosa, the “effect on bacterial growth, in words” value is recorded as “minor alterations in bacterial growth”. The “Avg MFI ± SD, hrpA expression” value in the assay with hrpA promoter (T3SS) [2] (6 h) is reported as 31.2 ± 34.1; in the assay with hrpA promoter (T3SS) [2] (9 h), 21.7 ± 28.5.
